From patent US12514858B2, “CD38 inhibitors” (Astellas Engineered Small Molecules US, Incorporated, priority 2020, dated 2026) come the findings set out here.

Molecules are shown by their SMILES. A value given as a limit tells only on which side of the number the result lay.

Human CD38, sequence (P28907 whole entry): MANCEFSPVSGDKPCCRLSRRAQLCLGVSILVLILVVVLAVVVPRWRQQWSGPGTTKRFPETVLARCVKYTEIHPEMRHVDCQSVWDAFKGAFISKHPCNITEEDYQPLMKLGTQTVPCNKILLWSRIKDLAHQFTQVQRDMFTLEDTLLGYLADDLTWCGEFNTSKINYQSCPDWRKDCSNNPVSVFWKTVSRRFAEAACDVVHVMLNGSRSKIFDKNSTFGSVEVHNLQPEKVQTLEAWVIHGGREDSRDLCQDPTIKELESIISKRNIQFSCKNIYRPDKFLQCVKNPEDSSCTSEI

The assay concerns the target Human CD38 (Homo sapiens (Human), UniProt P28907). Briefly: Determination of IC50 against human CD38 (CD38 Inhibitor Screening Assay Kit, glycohydrolase activity, fluorescence). In kind it is biochemical. Conditions: CD38 hydrolase enzyme, 30 min preincubation at room temperature, F-NAD substrate, excitation 300 nm, emission 410 nm; read-out: hCD38 IC50. The method, then:
CD38 hydrolase buffer (4×) was thawed on ice and 1×CD38 hydrolase buffer was prepared by diluting 4×CD38 hydrolase buffer with water. CD38 hydrolase enzyme was diluted to […] with 1×CD38 hydrolase buffer (10 ng/well). Master mix was prepared by mixing equal volumes of water and CD38 hydrolase buffer (4×) and 10 μl of the mix was added to all the wells. Following master mix addition, 10 μl of the inhibitors and 20 μl of CD38 hydrolase enzyme were added to the wells. For wells designated blank, 10 μl and 20 μl of 1× CD38 hydrolase buffer was added respectively in place of […]. The plate was covered and incubated 30 min at room temperature with slow shaking at 400 rpm. After 30 min incubation, the plate was removed and 10 μl of diluted F-NAD substrate was added to all the wells. The plate is incubated for 10 min, spun at 1200 rpm for 30 secs to remove bubbles and read in Tecan Spark using a fluorometer setting of excitation 300 nm and emission 410 nm. The reading for the blank was subtracted from all the values. IC50 for the test compounds were determined by using Graphpad prism software v7.0.
In the case of `COCCO[C@H]1CC[C@H](NC(=O)c2cccc(-n3ccnc3)n2)CC1` [Ex 11, 6-(1H-imidazol-1-yl)-N-((1r,4r)-4-(2-methoxyethoxy)cyclohexyl)picolinamide], the half-maximal inhibitory concentration (IC50) is 49 nM.

In the case of `COCCO[C@H]1CC[C@H](NC(=O)c2cc(-c3cncs3)nc(-n3ccnc3)c2)CC1` [Ex. 1, N-((1r,4r)-4-(2-methoxyethoxy)cyclohexyl)-2-(thiazol-5-yl)-6-(1H-imidazol-1-yl)isonicotinamide], the IC50 was determined as 60 nM.

As to `COCCO[C@H]1CC[C@H](NC(=O)c2cc(-c3cncs3)nc(-c3cncs3)c2)CC1` [Ex. 2, N-((1r,4r)-4-(2-methoxyethoxy)cyclohexyl)-2,6-di(thiazol-5-yl)isonicotinamide], the IC50 was more than 100 nM.

On to `COCCO[C@H]1CC[C@H](NC(=O)c2cc(-c3cnn(C)c3)nc(-c3cncs3)c2)CC1` [Ex. 3, N-((1r,4r)-4-(2-methoxyethoxy)cyclohexyl)-2-(1-methyl-1H-pyrazol-4-yl)-6-(thiazol-5-yl)isonicotinamide], for which the IC50 came out at 34 nM.

Turning to `COCCO[C@H]1CC[C@H](NC(=O)c2cc(-c3cncs3)nc(C(F)(F)F)c2)CC1` [Ex. 4, N-((1r,4r)-4-(2-methoxyethoxy)cyclohexyl)-2-(thiazol-5-yl)-6-(trifluoromethyl)isonicotinamide], the IC50 came to 3500 nM.

For the compound `COCCO[C@H]1CC[C@H](NC(=O)c2cc(-c3cncs3)nc(-c3cncs3)n2)CC1` [Ex. 5, N-((1r,4r)-4-(2-methoxyethoxy)cyclohexyl)-2,6-di(thiazol-5-yl)pyrimidine-4-carboxamide], the IC50 turned out to be 256 nM.

As to `COCCO[C@H]1CC[C@H](NC(=O)c2cc(-c3cnn(C)c3)nc(-c3cncs3)n2)CC1` [Ex. 6, N-((1r,4r)-4-(2-methoxyethoxy)cyclohexyl)-6-(1-methyl-1H-pyrazol-4-yl)-2-(thiazol-5-yl)pyrimidine-4-carboxamide], the IC50 is 53 nM.

In the case of `COCCO[C@H]1CC[C@H](NC(=O)c2cc(SC)nc(-c3cncs3)n2)CC1` [Ex. 7, N-((1r,4r)-4-(2-methoxyethoxy)cyclohexyl)-6-(methylthio)-2-(thiazol-5-yl)pyrimidine-4-carboxamide], the IC50 is more than 10000 nM.

As to `COCCO[C@H]1CC[C@H](NC(=O)c2cc(-c3cnn(C)c3)cc(-c3cncs3)n2)CC1` [Ex. 8, N-((1r,4r)-4-(2-methoxyethoxy)cyclohexyl)-4-(1-methyl-1H-pyrazol-4-yl)-6-(thiazol-5-yl)picolinamide], the IC50 turned out to be 286 nM.

In the case of `COCCO[C@H]1CC[C@H](NC(=O)c2cccc(-c3cncs3)n2)CC1` [Ex. 9, N-((1r,4r)-4-(2-methoxyethoxy)cyclohexyl)-6-(thiazol-5-yl)picolinamide], the IC50 came out at 10000 nM.

Take `COCCO[C@H]1CC[C@H](NC(=O)c2cc(-c3c(C)nn(C)c3C)cc(-n3ccnc3)n2)CC1` [Ex. 14, 6-(1H-imidazol-1-yl)-N-((1r,4r)-4-(2-methoxyethoxy)cyclohexyl)-4-(1,3,5-trimethyl-1H-pyrazol-4-yl)picolinamide]: the IC50 came out at 24 nM.

Take `COCCO[C@H]1CC[C@H](NC(=O)c2cc(Cl)cc(-n3ccnc3)n2)CC1` [Ex. 18, 4-chloro-6-(1H-imidazol-1-yl)-N-((1r,4r)-4-(2-methoxyethoxy)cyclohexyl)-picolinamide]: the IC50 came out at 16 nM.

For `COCCO[C@H]1CC[C@H](NC(=O)c2cc(C(F)(F)F)cc(-n3ccnc3)n2)CC1` [Ex. 19, 6-(1H-imidazol-1-yl)-N-((1r,4r)-4-(2-methoxyethoxy)cyclohexyl)-4-(trifluoromethyl)picolinamide], the IC50 came to 45.9 nM.

Take `COCCO[C@H]1CC[C@H](NC(=O)c2cc(F)cc(-n3ccnc3)n2)CC1` [Ex. 20, 4-fluoro-6-(1H-imidazol-1-yl)-N-((1r,4r)-4-(2-methoxyethoxy)cyclohexyl)picolinamide]: the IC50 came out at 21.5 nM.

Take `COCCO[C@H]1CC[C@H](NC(=O)c2cc(-n3ccnc3)nc(-n3ccnc3)c2)CC1` [Ex. 22, 2,6-di(1H-imidazol-1-yl)-N-((1r,4r)-4-(2-methoxyethoxy)cyclohexyl)isonicotinamide]: the IC50 came to 17.9 nM.

As for `COCCO[C@H]1CC[C@H](NC(=O)c2cc(-c3cnn(C)c3)nc(-n3ccnc3)c2)CC1` [Ex. 23, 2-(1H-imidazol-1-yl)-N-((1r,4r)-4-(2-methoxyethoxy)cyclohexyl)-6-(1-methyl-1H-pyrazol-4-yl)isonicotinamide], the IC50 was 21 nM.

As for `CCn1cc(-c2cc(C(=O)N[C@H]3CC[C@H](OCCOC)CC3)cc(-n3ccnc3)n2)cn1` [Ex. 24, 2-(1-ethyl-1H-pyrazol-4-yl)-6-(1H-imidazol-1-yl)-N-((1r,4r)-4-(2-methoxyethoxy)cyclohexyl)isonicotinamide], the IC50 came out at 153 nM.

In the case of `COCCO[C@H]1CC[C@H](NC(=O)c2cc(-c3cnn(C(C)C)c3)nc(-n3ccnc3)c2)CC1` [Ex. 25, 2-(1H-imidazol-1-yl)-6-(1-isopropyl-1H-pyrazol-4-yl)-N-((1r,4r)-4-(2-methoxyethoxy)cyclohexyl)isonicotinamide], the IC50 amounted to 12 nM.

In the case of `COCCO[C@H]1CC[C@H](NC(=O)c2cc(-c3ccn(C)n3)nc(-n3ccnc3)c2)CC1` [Ex. 26, 2-(1H-imidazol-1-yl)-N-((1r,4r)-4-(2-methoxyethoxy)cyclohexyl)-6-(1-methyl-1H-pyrazol-3-yl)isonicotinamide], the IC50 was determined as 150 nM.

Take `COCCO[C@H]1CC[C@H](NC(=O)c2cc(C)cc(-n3ccnc3)n2)CC1` [Ex. 29, 6-(1H-imidazol-1-yl)-N-((1r,4r)-4-(2-methoxyethoxy)cyclohexyl)-4-methylpicolinamide]: the IC50 was determined as 31 nM.

In the case of `COCCO[C@H]1CC[C@H](NC(=O)c2cc(-n3ccnc3)cc(-c3cnn(C)c3)n2)CC1` [Ex. 30, 4-(1H-imidazol-1-yl)-N-((1r,4r)-4-(2-methoxyethoxy)cyclohexyl)-6-(1-methyl-1H-pyrazol-4-yl)picolinamide], the IC50 came out at 429 nM.

For the compound `O=C(N[C@H]1CC[C@H](O)CC1)c1cccc(-n2ccnc2)n1` [Ex. 31, N-((1r,4r)-4-hydroxycyclohexyl)-6-(1H-imidazol-1-yl)picolinamide], the IC50 was determined as 54 nM.

For the compound `O=C(NC1CCCCC1)c1cccc(-n2ccnc2)n1` [Ex. 32, N-cyclohexyl-6-(1H-imidazol-1-yl)picolinamide], the IC50 worked out at 53 nM.

Consider `O=C(N[C@H]1CC[C@H](O)CC1)c1ccnc(-n2ccnc2)n1` [Ex. 34, N-((1r,4r)-4-hydroxycyclohexyl)-2-(1H-imidazol-1-yl)pyrimidine-4-carboxamide], for which the concentration for half-maximal inhibition (IC50) stood at 25.7 nM.

Turning to `COCCO[C@H]1CC[C@H](NC(=O)c2cc(C)nc(-n3ccnc3)n2)CC1` [Ex. 35, 2-(1H-imidazol-1-yl)-N-((1r,4r)-4-(2-methoxyethoxy)cyclohexyl)-6-methylpyrimidine-4-carboxamide], the IC50 stood at 7.4 nM.

For `COCCO[C@H]1CC[C@H](NC(=O)c2cc(C(F)(F)F)nc(-n3ccnc3)n2)CC1` [Ex. 36, 2-(1H-imidazol-1-yl)-N-((1r,4r)-4-(2-methoxyethoxy)cyclohexyl)-6-(trifluoromethyl)pyrimidine-4-carboxamide], the IC50 was found to be 39 nM.

Regarding `COCCO[C@H]1CC[C@H](NC(=O)c2cc(SC)cc(-n3ccnc3)n2)CC1` [Ex. 37, 6-(1H-imidazol-1-yl)-N-((1r,4r)-4-(2-methoxyethoxy)cyclohexyl)-4-(methylthio)picolinamide], the IC50 worked out at 42 nM.

Broadly, the IC50 is the concentration that inhibits the measured activity by half.
